Experiments:
NanoLuc-RIPK2 = target: T1, NanoLuc-RIPK2 (Homo sapiens, UniProt O43353); assay: nanoBRET cellular RIPK2 residence time assay in HEKBlue cells; assay type: binding; settings: t1/2 for probe to engage RIPK2 after washout of inhibitor
T1 construct: host or cells: hNOD2-HEKBlue cells

U2OS/NOD2 cells = assay: Intracellular flow cytometry of CXCL8 after L18-MDP; assay type: cell-based, human; settings: L18-MDP 200 ng/ml, 4 h; for inhibition of NOD2 signaling (CXCL8) in cells expressing RIPK2 T95W: U2OS/NOD2 RIPK2 KO cells reconstituted with T95W gatekeeper mutant; for L18-MDP-induced CXCL8 production: U2OS/NOD2 cells
Procedure: Purified material and lysates were analyzed by immunoblotting. […] Numbering below schematic refers to amino acid residues in human RIPK2 and indicate domain boundaries. […] Data information: Data in (A, B, D, H) represent the mean ± SEM of 2–4 independent experiments, each performed in duplicate. […] Two‐way ANOVA was used to determine statistical significance. See also Fig EV1.Source data are available online for this figure.
Dark gray represents areas occupied by RIPK2; white areas indicate empty spaces in CSLP binding pocket. […] Dotted black box indicates region shown for models with CSLP37 and CSLP43. • Molecular docking model of RIPK2 kinase domain in complex with CSLP43 (green) based on RIPK2/CSLP18 structure from (D). […] Two‐way ANOVA was used to determine statistical significance. See also Fig EV2.
GST-BIR2-XIAP as indicated. Intensity quantification of SPOTs was performed using ImageJ software
Dual luciferase reporter assay
Intracellular flow cytometry of CXCL8
for cell death) or vehicle for 24h. Viability was determined using the CellTiter-Glo® luminescent cell
together with Transfection Carrier DNA (Promega).
After addition of Nano-Glo

recombinant RIPK2 kinase = target: T2, recombinant RIPK2 kinase (Homo sapiens, UniProt O43353); assay: RIPK2 ADPGlo in vitro kinase assay; assay type: biochemical; settings: average ± SD of at least three titrations, read-out: IC50, In vitro kinase, RIPK2 ADPGIo
T2 construct: made in house
Excerpt: The BIR2 domains of XIAP and cIAP1 were cloned into the pGEX‐6P1 vector and were expressed in E. coli (BL21) cells as a fusion protein with N‐terminal 6xHis (XIAP BIR2 only) and GST tags. Protein expression was induced with IPTG, and cells were lysed using BugBuster protein extraction reagent (#70921, Merck Millipore) according to manufacturer's instructions. Proteins were purified with the FPLC protein purification system ÄKTA PrimePlus (GE Healthcare Life Sciences) using HisTrap FF column purification followed by gel filtration (HiLoad 26/600 Superdex 75 pg (GE Healthcare Life Sciences)). Collected fractions were stored at −80°C and used for probing of peptide array membranes. Expression and purification of recombinant RIPK1‐3 was performed as previously described (Canning et al, 2015; Najjar et al, 2015). RIPK1‐3 ADPGlo kinase assays using 20 ng/well protein were performed for 2 h at room temperature also as previously described (Canning et al, 2015; Najjar et al, 2015).

RAW264.7 cells = assay: TNF ELISA, MDP-stimulated RAW264.7 cells; assay type: cell-based; settings: Mus musculus, MDP 10 μg/ml, 24 h, read-out: RAW264.7 TNF release inhibition Est. IC50
Procedure: Figure 4 Cellular and in vivo characterization of novel RIPK2 inhibitors on inflammatory signaling • A, B ELISA measurement of TNF release from RAW264.7 cells treated with MDP (10 μg/ml, 24 h) and CSLP compounds or RIPK2 inhibitor WEHI‐345 as indicated. […] After 4 h, blood was collected by cardiac puncture and circulating levels of TNF were analyzed by ELISA. Data information: Data represent the mean ± SEM of three independent experiments. **P < 0.01, n.s., not significant. Two‐tailed unpaired Student's t‐test was used to determine statistical significance. See also Fig EV3. TEXT PRINTED IN THE PICTURE: (B) CSLP37: RAW264.7 TNF release inhibition Est. IC50 (nM): 12.6; RAW264.7 TNF release inhibition St. Err.: ±1.7 | (B) CSLP43: RAW264.7 TNF release inhibition Est. IC50 (nM): 1.2; RAW264.7 TNF release inhibition St. Err.: ±0.2 | (B) CSLP48: RAW264.7 TNF release inhibition Est. IC50 (nM): NI; RAW264.7 TNF release inhibition St. Err.: ±0.2 | (B) CSLP55: RAW264.7 TNF release inhibition Est. IC50 (nM): 143.0; RAW264.7 TNF release inhibition St. Err.: ±27.1 | (B) WEHI-345: RAW264.7 TNF release inhibition Est.
Cayman Chemical Company, Ann Arbor, MI), GSK583 (#HY-100339, MedChem Express, South Brunswick, NJ), WEHI-345 (MedKoo Biosciences, Morrisville, NC), Compound A (CpA, a kind gift from TetraLogic Pharmaceuticals, Malvern, PA). Generation of the CSLP compound series is described in Suebsuwong et al. 2018 (manuscript in preparation). […]
RAW264.7 cells were seeded into 12 well plates at a density of 1.5x10^5 cells/well in 1 ml of media.
Inhibitors were diluted and added in 1 μl DMSO 15 min prior to the addition of 10 μg/ml MDP or 10 ng/ml E. coli LPS for 24 h. For TNF measurements, 100 μl of undiluted media (MDP) or 5-fold diluted media was analyzed using Duo-Set anti-mouse TNF ELISA kit (R&D Systems, Minneapolis, MN).
Values of media-only wells were subtracted and %inhibition for each compound concentration relative to the DMSO/MDP (or LPS)-treated controls were calculated. Inhibition values + StDev were fitted by non-linear regression using Prism software (GraphPad) to calculate IC50 values. […]

T2 sequence (O43353 whole entry): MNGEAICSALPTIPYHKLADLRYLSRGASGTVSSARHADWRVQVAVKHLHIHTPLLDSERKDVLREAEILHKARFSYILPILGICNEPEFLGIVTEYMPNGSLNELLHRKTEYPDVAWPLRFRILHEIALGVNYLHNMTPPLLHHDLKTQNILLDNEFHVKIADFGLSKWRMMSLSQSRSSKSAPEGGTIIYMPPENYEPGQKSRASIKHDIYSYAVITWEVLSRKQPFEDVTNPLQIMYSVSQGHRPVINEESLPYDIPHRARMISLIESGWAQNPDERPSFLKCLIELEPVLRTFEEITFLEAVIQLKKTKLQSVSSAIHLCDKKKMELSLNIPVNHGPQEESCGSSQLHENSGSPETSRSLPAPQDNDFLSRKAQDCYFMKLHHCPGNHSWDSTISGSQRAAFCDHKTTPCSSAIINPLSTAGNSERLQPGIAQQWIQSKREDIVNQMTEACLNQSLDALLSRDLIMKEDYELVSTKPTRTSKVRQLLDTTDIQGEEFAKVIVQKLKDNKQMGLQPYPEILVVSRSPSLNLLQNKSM
T1 sequence (O43353 whole entry): as above

Q: `CCCS(=O)(=O)Nc1cc(-c2cc(-c3ccc(N4CCNCC4)cc3)cnc2N)cc(F)c1OC` [CSLP37] was tested. Which residence time (NanoLuc-RIPK2) did it give?
A: 27.1 min

Q: And the “inhibition of NOD2 signaling (CXCL8) in cells expressing RIPK2 T95W” value (“inhibition of NOD2 signaling (CXCL8)” for short) (U2OS/NOD2 cells)?
A: no longer observed

Q: What about the “L18-MDP-induced CXCL8 production” value (U2OS/NOD2 cells) of the same molecule?
A: potent suppression

Q: And the IC50 (recombinant RIPK2 kinase)?
A: 16.3 ± 4.6 nM

Q: What about the IC50 (RAW264.7 cells) of the same molecule?
A: 12.6 nM

Q: `CCCS(=O)(=O)Nc1cc(-c2cc(-c3ccc(N4CCNCC4)cc3)cnc2N)cc(OC)c1OC` [CSLP43] was tested. Which residence time (NanoLuc-RIPK2) did it give?
A: 107 min

Q: What about the “inhibition of NOD2 signaling (CXCL8)” value (U2OS/NOD2 cells) of the same molecule?
A: no longer observed

Q: What about the “L18-MDP-induced CXCL8 production” value (U2OS/NOD2 cells) of the same molecule?
A: potent suppression

Q: What about the IC50 (recombinant RIPK2 kinase) of the same molecule?
A: 19.9 ± 0.8 nM

Q: What about the IC50 (RAW264.7 cells) of the same molecule?
A: 1.2 nM

Q: How did the residence time (NanoLuc-RIPK2) turn out when `CCCS(=O)(=O)Nc1cc(-c2cc(-c3ccc(N4CCNCC4)cc3)cnc2N)ccc1O` [CSLP48] was run?
A: 127 min

Q: What about the “inhibition of NOD2 signaling (CXCL8)” value (U2OS/NOD2 cells) of the same molecule?
A: not negatively impacted

Q: What about the IC50 (recombinant RIPK2 kinase) of the same molecule?
A: 53.5 ± 5.7 nM

Q: What about the IC50 (RAW264.7 cells) of the same molecule?
A: > 1000 nM

Q: Which results are given for `COc1cc(-c2cc(-c3ccc(N4CCNCC4)cc3)cnc2N)cc(F)c1OC` [CSLP55]?
A: residence time (NanoLuc-RIPK2): 6.8 min; inhibition of NOD2 signaling (CXCL8) in cells expressing RIPK2 T95W (U2OS/NOD2 cells): not negatively impacted; IC50 (recombinant RIPK2 kinase): 39.1 ± 3.9 nM; IC50 (RAW264.7 cells): 143 nM

Q: Which results are given for `Cc1ccc(-c2nn(C(C)(C)CNC(=O)c3ccncc3)c3ncnc(N)c23)cc1` [WEHI‐345, reference compound]?
A: residence time (NanoLuc-RIPK2): 7.5 min; IC50 (recombinant RIPK2 kinase): 37.3 ± 1.3 nM; IC50 (RAW264.7 cells): 123 nM
